{
  "source": "paper PMC12656546",
  "about": "“Enterohepatic Recirculation-Mediated Reabsorption of Aristolochic Acid I: Revealed by Toxicokinetics and Metabolite Identification in Rats” (Toxics, 2025)",
  "data": [
    {"experiment": "Qualitative analysis of AAI and metabolites in bile of bile duct-cannulated rats", "format": "in vivo, F344 rats", "details": "30 mg/kg AAI oral, bile collected 0–3 h, 3–6 h, 6–9 h, 9–12 h, qualitative UHPLC-Q-Exactive", "description": "Ten 6-week-old F344 rats were divided into a control group (n = 2) and a treatment group (n = 8), with equal numbers of males and females in each group. During the experiment, rats were fasted and had access to water ad libitum. Rats in the control group were administered with 0.5% CMC-Na suspension via gastric gavage. For the treatment group, rats were administered with 30 mg/kg of AAI by the same route. Rats underwent bile duct cannulation for bile sample collection. Bile samples were collected at consecutive intervals of 0–3 h, 3–6 h, 6–9 h and 9–12 h after administration.\nFor each bile sample, a 200 μL aliquot of bile was mixed with an equal volume of a methanol/acetonitrile (1:1, v/v) solution. After vortexing for 2 min, the mixture was centrifuged at 13,200 rpm for 10 min. The precipitate was discarded, and the supernatant was dried under nitrogen gas. The dried residue was reconstituted in 80 μL of methanol, vortexed for 2 min, and centrifuged at 13,200 rpm for 15 min. The resulting supernatant was used for further analysis.\nUltra-high-performance liquid chromatography (UHPLC) coupled with a Q-Exactive orbitrap mass spectrometer (Thermo Fisher Scientific, San Jose, CA, USA) was used to analyzed the metabolites of AAI in rat bile. An ACQUITY UPLC BEH C18 column (2.1 mm × 50 mm, 1.7 μm, Waters, Milford, MA, USA) was employed for chromatographic separation. The mobile phase consisted of water containing 5 mmol/L ammonium formate/0.1% formic acid (A) and acetonitrile (B).\nMetabolites in bile samples were analyzed using electrospray ionization (ESI) in both positive and negative ion modes. The spray voltage was set at 3500 V for positive mode and 3000 V for negative mode. The ion transfer tube temperature was maintained at 350 °C with a vaporizer temperature of 300 °C. The sheath gas and auxiliary gas flow rates were 35 Arb and 10 Arb. Full-scan MS data were acquired at a resolution of 35,000 within the mass range of m/z 100–1200. For MS/MS analysis, data-dependent acquisition (DDA) was performed at a resolution of 17,500 using high-energy collision dissociation (HCD). Post-acquisition data was imported into Compound Discoverer 2.1 software to identify AAI metabolites. Blank matrices were processed alongside samples to exclude the background interferences.", "values": [
      {"smiles": "COc1cccc2c1cc([N+](=O)[O-])c1c(C(=O)OC3OC(C(=O)O)C(O)C(O)C3O)cc3c(c12)OCO3", "note": "(stereo not drawn) [AAI-O-glucuronide]", "detection in bile (biliary excretion)": "detectable in bile collected during four consecutive periods after oral administration"},
      {"smiles": "COc1cccc2c1c(O)c1c3c(cc4c(c32)OCO4)C(=O)N1", "note": "[ALI-9-OH, 9-hydroxyaristolactam I]", "detection in bile (biliary excretion)": "detected in bile samples"},
      {"smiles": "COc1cccc2c1cc1c3c(cc4c(c32)OCO4)C(=O)N1O", "note": "[ALI-N-OH, N-hydroxyaristolactam I]", "detection in bile (biliary excretion)": "detected in bile samples"}
    ]}
  ]
}
